Paper doi:10.1101/2023.11.24.568596v1 (biorxiv, 2023)
Blank lines part the entries; values can stand above or below the compound they belong to.

Legend:
Conditions in all cases: binder
DYRK2 = biological target: T1, DYRK2 (Homo sapiens, UniProt Q92630)
T1 sequence (Q92630 1-601): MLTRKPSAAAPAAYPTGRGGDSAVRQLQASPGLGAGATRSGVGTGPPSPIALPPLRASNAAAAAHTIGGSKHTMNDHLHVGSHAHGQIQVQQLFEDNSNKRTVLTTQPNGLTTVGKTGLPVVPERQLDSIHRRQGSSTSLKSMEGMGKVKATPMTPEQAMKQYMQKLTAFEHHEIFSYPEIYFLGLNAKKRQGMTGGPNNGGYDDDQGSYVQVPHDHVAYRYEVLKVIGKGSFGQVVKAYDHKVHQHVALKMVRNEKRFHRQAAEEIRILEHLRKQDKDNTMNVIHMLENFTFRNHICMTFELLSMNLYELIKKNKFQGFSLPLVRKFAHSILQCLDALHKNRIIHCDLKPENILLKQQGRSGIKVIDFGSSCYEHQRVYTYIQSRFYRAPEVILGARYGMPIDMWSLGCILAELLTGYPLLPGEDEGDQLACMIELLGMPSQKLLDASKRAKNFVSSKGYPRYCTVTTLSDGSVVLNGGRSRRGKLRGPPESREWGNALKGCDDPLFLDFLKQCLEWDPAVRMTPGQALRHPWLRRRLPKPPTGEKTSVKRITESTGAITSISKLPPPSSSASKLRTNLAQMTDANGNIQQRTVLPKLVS

Erk7 = biological target: T2, Erk7 (Homo sapiens, UniProt Q8TD08)
T2 sequence (Q8TD08 1-544): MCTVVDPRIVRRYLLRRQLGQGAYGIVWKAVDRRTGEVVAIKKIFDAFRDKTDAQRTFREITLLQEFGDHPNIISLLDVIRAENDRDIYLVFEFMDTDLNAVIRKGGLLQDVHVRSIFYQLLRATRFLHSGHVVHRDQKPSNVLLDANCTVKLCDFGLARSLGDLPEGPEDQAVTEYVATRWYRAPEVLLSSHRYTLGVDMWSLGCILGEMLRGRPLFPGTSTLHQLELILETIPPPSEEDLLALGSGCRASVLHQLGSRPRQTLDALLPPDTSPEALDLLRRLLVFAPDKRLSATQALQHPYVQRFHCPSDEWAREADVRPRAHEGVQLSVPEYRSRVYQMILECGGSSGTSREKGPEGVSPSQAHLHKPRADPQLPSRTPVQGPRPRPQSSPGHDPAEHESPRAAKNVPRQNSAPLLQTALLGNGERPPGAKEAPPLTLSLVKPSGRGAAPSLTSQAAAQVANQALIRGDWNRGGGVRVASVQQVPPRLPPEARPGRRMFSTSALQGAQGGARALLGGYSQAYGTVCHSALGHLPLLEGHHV

HIPK2 = HIPK2 (Homo sapiens, UniProt Q9H2X6)
Chain of HIPK2 (Q9H2X6 whole entry): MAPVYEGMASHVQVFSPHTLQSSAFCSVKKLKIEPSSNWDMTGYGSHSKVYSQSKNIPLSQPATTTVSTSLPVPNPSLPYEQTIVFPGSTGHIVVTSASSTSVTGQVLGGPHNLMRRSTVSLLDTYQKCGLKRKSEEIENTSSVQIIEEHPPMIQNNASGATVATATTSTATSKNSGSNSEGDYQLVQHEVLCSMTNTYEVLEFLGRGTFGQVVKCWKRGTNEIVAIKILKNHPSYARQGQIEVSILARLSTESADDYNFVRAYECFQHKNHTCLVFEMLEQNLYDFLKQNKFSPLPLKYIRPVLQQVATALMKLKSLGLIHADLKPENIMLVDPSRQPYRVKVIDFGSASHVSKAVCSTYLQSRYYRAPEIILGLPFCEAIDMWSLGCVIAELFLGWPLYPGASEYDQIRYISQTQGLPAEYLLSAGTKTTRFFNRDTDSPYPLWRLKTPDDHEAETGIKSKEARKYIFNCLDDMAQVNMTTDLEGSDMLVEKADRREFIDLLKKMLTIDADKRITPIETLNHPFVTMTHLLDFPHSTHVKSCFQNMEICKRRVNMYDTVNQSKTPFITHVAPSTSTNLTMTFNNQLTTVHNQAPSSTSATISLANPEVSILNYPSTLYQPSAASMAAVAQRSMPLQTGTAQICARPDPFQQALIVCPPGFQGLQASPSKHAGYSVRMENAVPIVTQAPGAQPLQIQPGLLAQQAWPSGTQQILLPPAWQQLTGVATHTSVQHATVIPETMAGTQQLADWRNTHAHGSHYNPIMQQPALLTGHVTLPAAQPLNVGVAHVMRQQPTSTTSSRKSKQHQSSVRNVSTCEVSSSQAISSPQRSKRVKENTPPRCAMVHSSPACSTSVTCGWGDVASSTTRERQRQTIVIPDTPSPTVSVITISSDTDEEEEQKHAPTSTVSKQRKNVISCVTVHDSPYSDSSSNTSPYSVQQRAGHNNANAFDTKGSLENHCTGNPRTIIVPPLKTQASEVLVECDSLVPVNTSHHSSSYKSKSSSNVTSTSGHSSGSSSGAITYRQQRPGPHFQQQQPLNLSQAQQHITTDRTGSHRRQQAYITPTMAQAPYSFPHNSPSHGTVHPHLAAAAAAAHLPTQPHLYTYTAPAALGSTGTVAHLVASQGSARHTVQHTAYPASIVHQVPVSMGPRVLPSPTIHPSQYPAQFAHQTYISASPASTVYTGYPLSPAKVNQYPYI

JNK1 = JNK1 (Homo sapiens, UniProt P45983)
Chain of JNK1 (P45983 whole entry): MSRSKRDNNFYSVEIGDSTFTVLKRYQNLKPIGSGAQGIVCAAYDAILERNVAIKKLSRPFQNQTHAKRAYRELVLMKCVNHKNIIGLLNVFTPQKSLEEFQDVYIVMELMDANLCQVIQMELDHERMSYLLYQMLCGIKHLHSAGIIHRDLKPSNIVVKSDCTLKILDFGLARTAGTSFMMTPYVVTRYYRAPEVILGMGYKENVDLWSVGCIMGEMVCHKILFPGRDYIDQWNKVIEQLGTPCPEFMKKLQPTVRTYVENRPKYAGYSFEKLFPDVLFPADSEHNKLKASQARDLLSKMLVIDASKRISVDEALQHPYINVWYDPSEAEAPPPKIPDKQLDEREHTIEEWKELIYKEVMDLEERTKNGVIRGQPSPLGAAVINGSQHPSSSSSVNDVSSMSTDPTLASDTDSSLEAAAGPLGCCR

CASK = biological target: T3, CASK (Homo sapiens, UniProt O14936)
T3 sequence (O14936 1-926): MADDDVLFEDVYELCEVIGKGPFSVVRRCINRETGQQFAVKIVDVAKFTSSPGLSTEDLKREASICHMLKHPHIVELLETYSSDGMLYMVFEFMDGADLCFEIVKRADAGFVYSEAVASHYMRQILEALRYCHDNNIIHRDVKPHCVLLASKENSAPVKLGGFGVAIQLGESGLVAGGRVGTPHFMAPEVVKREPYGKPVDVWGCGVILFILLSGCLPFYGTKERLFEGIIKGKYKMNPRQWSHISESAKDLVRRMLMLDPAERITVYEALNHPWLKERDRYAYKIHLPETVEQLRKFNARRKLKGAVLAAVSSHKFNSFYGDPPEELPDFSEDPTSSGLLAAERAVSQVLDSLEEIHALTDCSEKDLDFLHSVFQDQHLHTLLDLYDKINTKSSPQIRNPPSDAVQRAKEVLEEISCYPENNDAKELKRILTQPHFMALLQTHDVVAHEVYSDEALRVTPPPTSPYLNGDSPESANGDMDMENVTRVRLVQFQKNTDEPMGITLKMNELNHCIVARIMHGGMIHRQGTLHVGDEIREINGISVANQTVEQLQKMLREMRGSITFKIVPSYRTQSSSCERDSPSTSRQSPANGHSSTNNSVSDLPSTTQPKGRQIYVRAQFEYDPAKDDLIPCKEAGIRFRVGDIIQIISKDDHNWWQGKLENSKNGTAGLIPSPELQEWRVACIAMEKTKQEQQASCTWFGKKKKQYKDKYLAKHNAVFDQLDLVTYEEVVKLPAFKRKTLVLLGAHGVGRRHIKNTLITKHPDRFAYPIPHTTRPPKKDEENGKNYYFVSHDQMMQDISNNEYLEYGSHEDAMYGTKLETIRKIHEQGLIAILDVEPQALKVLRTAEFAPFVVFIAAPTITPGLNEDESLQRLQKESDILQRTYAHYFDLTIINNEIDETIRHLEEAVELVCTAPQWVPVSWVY

MYT1 = biological target: T4, MYT1 (Homo sapiens, UniProt Q99640)
T4 sequence (Q99640 1-499): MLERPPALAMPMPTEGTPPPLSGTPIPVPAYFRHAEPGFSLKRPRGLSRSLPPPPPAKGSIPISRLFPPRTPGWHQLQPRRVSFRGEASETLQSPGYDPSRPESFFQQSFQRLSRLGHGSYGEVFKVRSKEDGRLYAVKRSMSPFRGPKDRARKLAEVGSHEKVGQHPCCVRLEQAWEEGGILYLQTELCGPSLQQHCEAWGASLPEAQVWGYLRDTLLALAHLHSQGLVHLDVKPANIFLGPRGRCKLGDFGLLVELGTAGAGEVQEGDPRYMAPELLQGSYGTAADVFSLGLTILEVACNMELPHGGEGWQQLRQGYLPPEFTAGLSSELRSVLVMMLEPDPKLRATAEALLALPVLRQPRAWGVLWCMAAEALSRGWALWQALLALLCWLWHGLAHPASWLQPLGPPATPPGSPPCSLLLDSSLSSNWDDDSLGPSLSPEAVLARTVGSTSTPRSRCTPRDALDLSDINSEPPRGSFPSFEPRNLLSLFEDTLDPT

Wnk1 = Wnk1 (Homo sapiens, UniProt Q9H4A3)
Chain of Wnk1 (Q9H4A3 whole entry): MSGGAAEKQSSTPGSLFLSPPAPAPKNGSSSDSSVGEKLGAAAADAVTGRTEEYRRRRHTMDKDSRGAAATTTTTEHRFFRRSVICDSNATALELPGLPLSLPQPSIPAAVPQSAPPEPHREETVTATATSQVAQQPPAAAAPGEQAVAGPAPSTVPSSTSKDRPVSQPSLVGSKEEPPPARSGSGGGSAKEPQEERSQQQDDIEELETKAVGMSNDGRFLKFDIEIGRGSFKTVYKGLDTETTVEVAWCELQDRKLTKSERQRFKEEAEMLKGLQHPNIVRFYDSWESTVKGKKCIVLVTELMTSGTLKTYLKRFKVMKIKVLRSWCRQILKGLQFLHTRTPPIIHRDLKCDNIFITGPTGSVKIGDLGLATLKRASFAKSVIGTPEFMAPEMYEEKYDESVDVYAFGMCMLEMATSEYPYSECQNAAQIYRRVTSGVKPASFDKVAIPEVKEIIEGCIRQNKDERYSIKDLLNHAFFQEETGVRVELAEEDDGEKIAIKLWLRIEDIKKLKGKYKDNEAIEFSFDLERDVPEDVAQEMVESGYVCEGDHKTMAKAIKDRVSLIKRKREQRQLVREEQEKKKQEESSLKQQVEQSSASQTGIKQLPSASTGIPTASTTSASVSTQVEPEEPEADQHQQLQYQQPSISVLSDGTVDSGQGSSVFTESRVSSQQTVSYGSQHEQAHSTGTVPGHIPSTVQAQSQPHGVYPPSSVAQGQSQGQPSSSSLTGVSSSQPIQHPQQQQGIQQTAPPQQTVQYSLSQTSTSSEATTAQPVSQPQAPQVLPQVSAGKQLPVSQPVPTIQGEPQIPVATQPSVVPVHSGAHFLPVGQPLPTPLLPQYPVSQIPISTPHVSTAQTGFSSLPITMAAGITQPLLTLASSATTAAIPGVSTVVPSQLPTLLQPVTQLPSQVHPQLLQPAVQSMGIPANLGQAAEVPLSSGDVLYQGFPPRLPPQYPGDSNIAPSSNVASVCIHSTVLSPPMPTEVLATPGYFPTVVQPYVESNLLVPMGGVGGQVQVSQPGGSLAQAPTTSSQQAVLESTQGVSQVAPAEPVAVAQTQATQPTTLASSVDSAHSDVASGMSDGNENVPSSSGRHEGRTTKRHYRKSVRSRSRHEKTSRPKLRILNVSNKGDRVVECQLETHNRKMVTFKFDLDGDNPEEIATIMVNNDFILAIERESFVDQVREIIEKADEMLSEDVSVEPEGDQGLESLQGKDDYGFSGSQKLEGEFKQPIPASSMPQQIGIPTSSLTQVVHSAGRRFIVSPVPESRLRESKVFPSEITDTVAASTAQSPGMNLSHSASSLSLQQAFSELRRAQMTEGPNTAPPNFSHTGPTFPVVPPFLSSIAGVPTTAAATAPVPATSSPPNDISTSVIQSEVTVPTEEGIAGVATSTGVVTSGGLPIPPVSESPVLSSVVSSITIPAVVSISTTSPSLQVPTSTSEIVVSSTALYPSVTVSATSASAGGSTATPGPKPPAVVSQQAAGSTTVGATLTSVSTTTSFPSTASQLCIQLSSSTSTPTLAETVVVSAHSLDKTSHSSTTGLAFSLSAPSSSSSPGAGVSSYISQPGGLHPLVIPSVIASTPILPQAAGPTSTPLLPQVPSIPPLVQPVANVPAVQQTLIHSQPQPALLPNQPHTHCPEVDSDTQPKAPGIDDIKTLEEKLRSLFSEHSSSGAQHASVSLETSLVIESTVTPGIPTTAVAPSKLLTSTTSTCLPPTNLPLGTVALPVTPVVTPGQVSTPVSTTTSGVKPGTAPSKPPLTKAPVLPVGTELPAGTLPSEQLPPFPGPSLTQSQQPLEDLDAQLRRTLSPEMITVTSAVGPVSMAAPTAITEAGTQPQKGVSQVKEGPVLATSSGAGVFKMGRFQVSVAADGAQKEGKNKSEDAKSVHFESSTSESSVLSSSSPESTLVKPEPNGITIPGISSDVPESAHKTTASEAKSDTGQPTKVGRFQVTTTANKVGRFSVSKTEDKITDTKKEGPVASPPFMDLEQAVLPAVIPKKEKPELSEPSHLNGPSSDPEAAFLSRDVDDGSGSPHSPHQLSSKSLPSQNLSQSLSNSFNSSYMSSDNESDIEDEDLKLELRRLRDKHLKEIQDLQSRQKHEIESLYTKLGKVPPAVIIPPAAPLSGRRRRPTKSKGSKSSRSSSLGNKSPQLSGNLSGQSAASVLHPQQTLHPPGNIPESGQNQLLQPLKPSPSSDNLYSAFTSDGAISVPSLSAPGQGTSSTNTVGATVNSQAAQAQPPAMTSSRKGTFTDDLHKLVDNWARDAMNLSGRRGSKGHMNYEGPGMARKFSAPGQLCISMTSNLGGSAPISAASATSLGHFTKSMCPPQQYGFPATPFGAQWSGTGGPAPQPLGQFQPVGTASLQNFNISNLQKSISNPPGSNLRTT

dTm 33 (DYRK2): -1.0 °C
dTm 33 (HIPK2): 2.0 °C
dTm 33 (JNK1): 2.2 °C
dTm 33 (CASK): 0.2 °C
dTm 33 (MYT1): -1.8 °C
dTm 33 (Wnk1): 3.3 °C
SMILES: Cc1cccc(-c2ccc(-c3cc4cnc(Nc5ccc(F)c(CO)c5)nc4n(CCCCN)c3=O)c(Cl)c2)n1 [compound 33, 8-(4-Aminobutyl)-6-(2-chloro-4-(6-methylpyridin-2-yl)phenyl)-2-((4-fluoro-3-(hydroxymethyl)phenyl)amino)pyrido[2,3-d]pyrimidin-7(8H)-one]
dTm 33 (Erk7): 1.6 °C

dTm 35 (DYRK2): -0.6 °C
dTm 35 (HIPK2): 0.1 °C
dTm 35 (JNK1): 4.7 °C
dTm 35 (CASK): 0.0 °C
dTm 35 (MYT1): -3.5 °C
dTm 35 (Wnk1): 2.7 °C
SMILES: COc1cc(N2CCOCC2)ccc1Nc1ncc2cc(-c3ccc(-c4cccc(C)n4)cc3Cl)c(=O)n(CCCCN)c2n1 [compound 35, 8-(4-Aminobutyl)-6-(2-chloro-4-(6-methylpyridin-2-yl)phenyl)-2-((2-methoxy-4-morpholino-phenyl)amino)pyrido[2,3-d]pyrimidin-7(8H)-one]
dTm 35 (Erk7): 1.1 °C

dTm 36 (DYRK2): -0.4 °C
dTm 36 (HIPK2): 0.3 °C
dTm 36 (JNK1): 1.7 °C
dTm 36 (CASK): -0.4 °C
dTm 36 (MYT1): -2.8 °C
dTm 36 (Wnk1): 1.5 °C
SMILES: COc1cc(N2CCN(C)CC2)ccc1Nc1ncc2cc(-c3ccc(-c4cccc(C)n4)cc3Cl)c(=O)n(CCCCN)c2n1 [compound 36, 8-(4-Aminobutyl)-6-(2-chloro-4-(6-methylpyridin-2-yl)phenyl)-2-((2-methoxy-4-(4-methylpiperazin-1-yl)phenyl)amino)pyrido[2,3-d]pyrimidin-7(8H)-one]
dTm 36 (Erk7): -0.5 °C

dTm 34 (DYRK2): 0.0 °C
dTm 34 (HIPK2): 0.5 °C
dTm 34 (JNK1): 1.8 °C
dTm 34 (CASK): -0.2 °C
dTm 34 (MYT1): -2.7 °C
dTm 34 (Wnk1): 0.8 °C
SMILES: COc1ccc(O)c(Nc2ncc3cc(-c4ccc(-c5cccc(C)n5)cc4Cl)c(=O)n(CCCCN)c3n2)c1 [compound 34, 8-(4-Aminobutyl)-6-(2-chloro-4-(6-methylpyridin-2-yl)phenyl)-2-((2-hydroxy-5-methoxy-phenyl)amino)pyrido[2,3-d]pyrimidin-7(8H)-one]
dTm 34 (Erk7): -0.4 °C
